This test has as its target T1, Prostaglandin G/H synthase 1 (Ovis aries, UniProt P05979).
T1 sequence (P05979 whole entry): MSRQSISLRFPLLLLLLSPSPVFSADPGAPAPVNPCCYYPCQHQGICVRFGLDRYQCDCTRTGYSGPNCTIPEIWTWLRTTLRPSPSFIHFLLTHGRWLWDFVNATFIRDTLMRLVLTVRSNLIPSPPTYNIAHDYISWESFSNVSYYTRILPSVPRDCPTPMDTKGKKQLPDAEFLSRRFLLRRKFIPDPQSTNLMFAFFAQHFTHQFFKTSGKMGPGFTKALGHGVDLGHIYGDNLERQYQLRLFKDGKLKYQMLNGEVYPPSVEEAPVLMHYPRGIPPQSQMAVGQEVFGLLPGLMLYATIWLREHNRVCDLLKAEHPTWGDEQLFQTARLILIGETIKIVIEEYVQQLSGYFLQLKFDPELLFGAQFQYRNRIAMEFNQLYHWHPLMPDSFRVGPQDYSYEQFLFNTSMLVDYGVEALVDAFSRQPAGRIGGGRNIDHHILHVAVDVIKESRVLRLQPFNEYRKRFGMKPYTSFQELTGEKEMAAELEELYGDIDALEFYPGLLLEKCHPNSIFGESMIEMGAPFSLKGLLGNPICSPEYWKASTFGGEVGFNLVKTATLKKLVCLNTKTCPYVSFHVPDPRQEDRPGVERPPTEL
Description: In vitro inhibitory concentration against ovine Prostaglandin G/H synthase 1.

Some results are limits rather than exact numbers.

`CC/C(=C\c1ccc(C)cc1)c1ccc(S(C)(=O)=O)cc1` gave an IC50 of 0.03 µM. In the case of `CCCCCC/C(=C\c1ccccc1)c1ccc(S(C)(=O)=O)cc1` it was > 100 µM; in that of `CCC/C(=C\c1ccccc1)c1ccc(S(C)(=O)=O)cc1`, > 100 µM; in that of `CC/C(=C\c1ccccc1)c1ccc(S(C)(=O)=O)cc1`, > 100 µM. In the case of `CCCCCCC/C(=C\c1ccccc1)c1ccc(S(C)(=O)=O)cc1` it was > 100 µM.

A word on the IC50: it is the concentration needed to halve the response being measured. A lower IC50 goes with greater potency.

These data come from ChEMBL document CHEMBL1137874, “A new class of acyclic 2-alkyl-1,2-diaryl (E)-olefins as selective cyclooxygenase-2 (COX-2) inhibitors” (Bioorg Med Chem Lett, 2004).
